Laboratory results published in ChEMBL document CHEMBL1201862, “PubChem BioAssay data set” (2004).
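Five compound concentrations were applied to cells in 96-well plates for 48 hours; endpoints were derived by simple linear interpolation of the resulting dose-response curve. The concentration for 50% growth inhibition is given as GI50.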 The source made the active and inactive calls. No stated cut-off is given here; in the data, active = GI50 up to about 1.1 µM and inactive = higher.

Columns and labels:
Assay in all cases: inhibition of tumour cell growth, NCI panel, 48 h
[1] = tested on: 786-0
[2] = tested on: A498
[3] = tested on: A549
[4] = tested on: ACHN
[5] = tested on: CAKI-1
[6] = tested on: CCRF-CEM
[7] = tested on: COLO 205
[8] = tested on: DLD-1
[9] = tested on: DMS-114
[10] = tested on: DMS-273
[11] = tested on: HCT-116
[12] = tested on: HCT-15
[13] = tested on: HL-60
[14] = tested on: HOP-18
[15] = tested on: HOP-62
[16] = tested on: HOP-92
[17] = tested on: HT-29
[18] = tested on: IGROV-1
[19] = tested on: K562
[20] = tested on: KM-20L2
[21] = tested on: KM12
[22] = tested on: LOX IMVI
[23] = tested on: LXFL 529
[24] = tested on: M14
[25] = tested on: M19-MEL
[26] = tested on: MOLT-4
[27] = tested on: NCI-H226
[28] = tested on: NCI-H23
[29] = tested on: NCI-H460
[30] = tested on: NCI-H522
[31] = tested on: OVCAR-3
[32] = tested on: OVCAR-4
[33] = tested on: OVCAR-8
[34] = tested on: RPMI-8226
[35] = tested on: RXF 393
[36] = tested on: SF-268
[37] = tested on: SF-295
[38] = tested on: SF-539
[39] = tested on: SK-MEL-28
[40] = tested on: SK-MEL-2
[41] = tested on: SK-MEL-5
[42] = tested on: SK-OV-3
[43] = tested on: SN12C
[44] = tested on: SNB-19
[45] = tested on: SNB-75
[46] = tested on: SNB-78
[47] = tested on: SW-620
[48] = tested on: TK-10
[49] = tested on: U-251
[50] = tested on: UACC-257
[51] = tested on: UACC-62
[52] = tested on: UO-31
[53] = tested on: XF498
[54] = tested on: EKVX
[55] = tested on: HCC 2998
[56] = tested on: Malme-3M
[57] = tested on: OVCAR-5

Compound: NCC(=O)OCN1C(=O)C2C3C=CC(C2C1=O)C1C2C(=O)N(COC(=O)CN)C(=O)C2C31 (stereo unspecified)
- GI50 [1]: 22.8 µM (inactive)
- GI50 [2]: > 100 µM (inactive)
- GI50 [3]: 30.1 µM (inactive)
- GI50 [4]: 24.5 µM (inactive)
- GI50 [5]: 53.5 µM (inactive)
- GI50 [6]: 22.9 µM (inactive)
- GI50 [7]: 21.4 µM (inactive)
- GI50 [8]: 24.3 µM (inactive)
- GI50 [9]: 20.9 µM (inactive)
- GI50 [10]: 18.2 µM (inactive)
- GI50 [11]: 16.9 µM (inactive)
- GI50 [12]: 19.1 µM
- GI50 [13]: 12.4 µM (inactive)
- GI50 [14]: 25.6 µM (inactive)
- GI50 [15]: > 100 µM (inactive)
- GI50 [16]: 94 µM (inactive)
- GI50 [17]: 40.6 µM (inactive)
- GI50 [18]: 41.8 µM (inactive)
- GI50 [19]: 30.5 µM (inactive)
- GI50 [20]: 24.3 µM (inactive)
- GI50 [21]: 22.2 µM (inactive)
- GI50 [22]: 20 µM (inactive)
- GI50 [23]: 22.7 µM (inactive)
- GI50 [24]: 20.5 µM (inactive)
- GI50 [25]: 24.8 µM (inactive)
- GI50 [26]: 28.9 µM (inactive)
- GI50 [27]: 50.5 µM (inactive)
- GI50 [28]: 21.1 µM (inactive)
- GI50 [29]: 16.6 µM (inactive)
- GI50 [30]: 12.5 µM (inactive)
- GI50 [31]: 35.7 µM (inactive)
- GI50 [32]: 20 µM (inactive)
- GI50 [33]: 20.7 µM (inactive)
- GI50 [34]: 32.1 µM (inactive)
- GI50 [35]: 20.6 µM (inactive)
- GI50 [36]: 20.9 µM (inactive)
- GI50 [37]: > 100 µM (inactive)
- GI50 [38]: 30.2 µM (inactive)
- GI50 [39]: 19.1 µM (inactive)
- GI50 [40]: 19.4 µM (inactive)
- GI50 [41]: 25.5 µM (inactive)
- GI50 [42]: 76.9 µM (inactive)
- GI50 [43]: 23.3 µM (inactive)
- GI50 [44]: 71.3 µM (inactive)
- GI50 [45]: 23.6 µM (inactive)
- GI50 [46]: 42 µM (inactive)
- GI50 [47]: 22.4 µM (inactive)
- GI50 [48]: 31.3 µM (inactive)
- GI50 [49]: 22 µM (inactive)
- GI50 [50]: 36.3 µM (inactive)
- GI50 [51]: 23 µM (inactive)
- GI50 [52]: 31.9 µM (inactive)
- GI50 [53]: 17.9 µM (inactive)

Compound: CCCCCCCCCCCCCC(=O)OC1CC(=O)OC1CO (stereo unspecified)
- GI50 [1]: > 100 µM (inactive)
- GI50 [2]: 77.6 µM (inactive)
- GI50 [3]: 55.1 µM (inactive)
- GI50 [4]: 46 µM (inactive)
- GI50 [5]: 81.1 µM (inactive)
- GI50 [6]: 25.5 µM (inactive)
- GI50 [7]: > 100 µM (inactive)
- GI50 [8]: 34.4 µM (inactive)
- GI50 [9]: 35.7 µM (inactive)
- GI50 [10]: > 100 µM (inactive)
- GI50 [54]: > 100 µM (inactive)
- GI50 [55]: 60.3 µM (inactive)
- GI50 [11]: 27.4 µM (inactive)
- GI50 [12]: 18.5 µM
- GI50 [13]: 23 µM (inactive)
- GI50 [14]: 21.6 µM (inactive)
- GI50 [15]: > 100 µM (inactive)
- GI50 [16]: 17 µM (inactive)
- GI50 [17]: 32.1 µM (inactive)
- GI50 [18]: 41 µM (inactive)
- GI50 [19]: 21.9 µM (inactive)
- GI50 [20]: 50.7 µM (inactive)
- GI50 [21]: 22.9 µM (inactive)
- GI50 [22]: 28.2 µM (inactive)
- GI50 [23]: 89.3 µM (inactive)
- GI50 [24]: 19.3 µM (inactive)
- GI50 [25]: > 100 µM (inactive)
- GI50 [26]: 25.1 µM (inactive)
- GI50 [56]: > 100 µM (inactive)
- GI50 [29]: 34.2 µM (inactive)
- GI50 [31]: 33.6 µM (inactive)
- GI50 [32]: > 100 µM (inactive)
- GI50 [57]: > 100 µM (inactive)
- GI50 [33]: > 100 µM (inactive)
- GI50 [34]: 36.5 µM (inactive)
- GI50 [35]: > 100 µM (inactive)
- GI50 [36]: 64 µM (inactive)
- GI50 [37]: 21.5 µM (inactive)
- GI50 [38]: > 100 µM (inactive)
- GI50 [40]: > 100 µM (inactive)
- GI50 [41]: 91.8 µM (inactive)
- GI50 [42]: > 100 µM (inactive)
- GI50 [43]: > 100 µM (inactive)
- GI50 [44]: 32.8 µM (inactive)
- GI50 [45]: 79.6 µM (inactive)
- GI50 [46]: 37.8 µM (inactive)
- GI50 [47]: 71.6 µM (inactive)
- GI50 [48]: > 100 µM (inactive)
- GI50 [49]: 53.6 µM (inactive)
- GI50 [50]: > 100 µM (inactive)
- GI50 [51]: 19.2 µM (inactive)
- GI50 [52]: 32.8 µM (inactive)
- GI50 [53]: 65.3 µM (inactive)
